Measurements taken from patent publication US6852328B1, “Method and device for protection of wooden objects proximate soil from pest invasion” (priority 1989, dated 2005).

Key:
Assay type in all cases: physicochemical
[1] = Release rate and longevity of high density polyethylene sheets as a function of thickness and temperature (Example 2); conditions: 10 wt % pesticide, 10 wt % carrier; for Longevity @ 23° C. / Longevity @ 35° C.: 80 wt % HDPE; for Release Rate @ 23° C.: sheet, 80 wt % high density polyethylene (MA 778000), 60 mil
From the text: Controlled release devices in the form of sheets are made having 10% wt % pesticide, 10 wt % carrier and 80 wt % high density polyethylene (MA 778000).

[2] = Release rate and longevity of pellet (Example 4); conditions: pellet about 100 g, about 150 cm^2, 70 wt % HDPE, 20 wt % pesticide, 10 wt % carrier
From the text: A pellet is made having a mass of about 100 g and a surface area of about 150 cm^2. The polymer is 70 wt % high density polyethylene, with 20 wt % pesticide and 10 wt % carrier. Comparing Table 4 to Table 3, it is evident that the encapsulated two-part construction provides longer life than the pellet.

[3] = Release rate and longevity of encapsulated two-part construction (Example 3); conditions: two-part device about 100 g, inner part 60 wt % pesticide, 40 wt % carrier, outer part HDPE 120 mil
From the text: A device having an inner part surrounded by or encapsulated by an outer part is constructed having an overall mass of about 100 g. The inner part contains 60 wt % pesticide and 40 wt % carrier. The outer part is high density polyethylene of a thickness of 120 mil.

[4] = Release rates of pesticide/polymer combinations, one inch squares cut from 1/8 inch sheets (Example 1); conditions: 10% pesticide
From the text: The following controlled release devices were made and tested to obtain their release rates (Table 1). The devices were made as follows. All devices, except for those employing S-113 urethane, were injection molded into a thin sheet about ⅛ inch thick. The device employing S-113 urethane was case, a method typically used for thermoset polymers. All thermoplastics were formulated using sufficient amount of carbon black to carry pesticides. All thermoplastic polymers were formulated with 10 percent pesticide, 3 or 7 percent carbon black to absorb liquid pesticide and 87 to 83 percent by weight of polymer. Specifically, devices made from thermoplastic polymers and deltamethrin and lambdacyhalothrin contained 3 percent of carbon black. The devices made from the remaining pesticides and thermoplastic polymers contained 7 percent of carbon black.
The devices made from S-113 urethane (a thermoset polymer) were made from a polymer mix containing 60% S-113, 40% castor oil, and 5% of TIPA catalyst by weight. The polymer mix comprised 90% of the total weight of the device. The pesticide, deltamethrin, comprised the remaining 10% of the device. No carbon black was used in this device. The polymer/pesticide mixture was cast, using a spin caster into a ⅛ inch thick sheet and heated at about 60° C. for about 40 to 60 minutes to cure the cast sheet.
One inch squares were then cut from the thin sheets that were injection molded or cast, and the squares were tested for release rates as shown in Table 1.

[5] = polymer Polyethylene MA78000, injection molded 1/8 inch sheet, 3 or 7% carbon black
[6] = polymer EVA 763, injection molded 1/8 inch sheet, 3 or 7% carbon black
[7] = polymer polyurethane 2200, injection molded 1/8 inch sheet, 3 or 7% carbon black
[8] = polymer polyurethane 3100, injection molded 1/8 inch sheet, 3 or 7% carbon black

SMILES | Longevity @ 23° C. ([1]; sheet thickness 60 mil) [years] | Longevity @ 35° C. ([1]; sheet thickness 60 mil) [years] | Longevity @ 23° C. ([1]; sheet thickness 120 mil) [years] | Longevity @ 35° C. ([1]; sheet thickness 120 mil) [years] | Longevity @ 23° C. ([1]; sheet thickness 240 mil) [years] | Longevity @ 35° C. ([1]; sheet thickness 240 mil) [years] | Release Rate @ 23° C. [1] [μg/cm^2/day] | Longevity @ 23° C. [2] [years] | Release Rate @ 23° C. [2] [μg/cm^2/day] | Longevity @ 35° C. [2] [years] | Longevity @ 23° C. [3] [years] | Release Rate @ 23° C. [3] [μg/cm^2/day] | Longevity @ 35° C. [3] [years] | Release Rate [4, 5] [μg/cm2/day] | Release Rate [4, 6] [μg/cm2/day] | Release Rate [4, 7] [μg/cm2/day] | Release Rate [4, 8] [μg/cm2/day] | further results
c1ccc(-c2ccccc2)cc1 [Biphenyl] | 2.5 | 2.1 | 5.1 | 4.4 | 11.2 | 9.1 | 3.5 | 22 | 16 | 11 | 31 | 35 | 23 | – | – | – | – | –
CCOP(=S)(OCC)Oc1cc(C)nc(C(C)C)n1 [Diazinon] | 1.1 | 0.6 | 2.3 | 1.3 | 4.8 | 2.7 | 11.7 | 8.1 | 45 | 5.1 | 39 | 28 | 24 | – | – | – | – | –
Oc1ccc(Cl)cc1Cc1cc(Cl)ccc1O [Dichlorophen] | 1.6 | 1.4 | 3.3 | 3.0 | 6.8 | 6.4 | 6.2 | 33 | 11 | 16 | 56 | 24 | 28 | 6.2 | – | – | – | –
CC1(C)[C@H](C(=O)O[C@H](C#N)c2cccc(Oc3ccccc3)c2)[C@@H]1/C=C(\Cl)C(F)(F)F [Lambdacyhalothrin] | – | – | – | – | – | – | – | – | – | – | – | – | – | 5.2 | 20.6 | 2.0 | 0.7 | –
Cc1c(F)c(F)c(COC(=O)[C@@H]2[C@H](/C=C(\Cl)C(F)(F)F)C2(C)C)c(F)c1F (racemic) [Tefluthrin] | 9.1 | 3.1 | 18.2 | 5.9 | 39 | 10.4 | 1.3 | 33 | 11 | 16 | 35 | 31 | 18 | 27.0 | 40.4 | 25.0 | 6.4 | –
CC1(C)[C@H](C(=O)O[C@H](C#N)c2cccc(Oc3ccccc3)c2)[C@@H]1C=C(Br)Br [Deltamethrin] | – | – | – | – | – | – | – | – | – | – | – | – | – | – | – | – | – | Release Rate ([4]; polymer Alipmtic PS-49-100, injection molded 1/8 inch sheet, 3% carbon black): 7.2 μg/cm2/day; Release Rate ([4]; polymer Aromatic 80A, injection molded 1/8 inch sheet, 3% carbon black): 16.8 μg/cm2/day; Release Rate ([4]; polymer S-113 urethane (thermoset), cast 1/8 inch sheet, no carbon black): 25.2 μg/cm2/day; Release Rate ([4]; polymer pellethane 2102-55D, injection molded 1/8 inch sheet, 3% carbon black): 8.0 μg/cm2/day; Release Rate ([4]; polymer pellethane 2102-80A, injection molded 1/8 inch sheet, 3% carbon black): 8.8 μg/cm2/day
CC1(C)C(C=C(Cl)Cl)C1C(=O)OCc1cccc(Oc2ccccc2)c1 (stereo not drawn) [Permethrin] | 8.6 | 3.2 | 17 | 6.5 | 35 | 13 | 1.5 | 30 | 12 | 14 | 68 | 16 | 38 | 4.0 | 28.5 | 1.3 | 1.4 | –
CC1(C)C(C=C(Cl)Cl)C1C(=O)OC(C#N)c1cccc(Oc2ccccc2)c1 (stereo not drawn) [Cypermethrin] | – | – | – | – | – | – | – | – | – | – | – | – | – | 4.6 | 27.3 | 0.7 | 0.4 | –
